In patent US11938115B2, “Benzoselenophene-based compound, pharmaceutical composition containing same, and antibody-drug conjugate” (priority 2020, dated 2024):
Non-standard residues stand in square brackets, D forms with d. Residues, ends and D or L forms follow the SMILES beside them. *: point of attachment. Dolaproine = CO[C@@H]([C@@H]1CCCN1)[C@@H](C)C(=O)O; Dil = CC[C@H](C)[C@H](NC)[C@@H](CC(=O)O)OC; X1 = C[C@@H](N*)[C@@H](O)c1ccccc1; NMeV = CN[C@H](C(=O)O)C(C)C

Tests used:
[1] = system: multiple myeloma cell line KMS11; experiment: High-throughput screening, cell viability, KMS11; format: cell-based; details: seven days after drug treatment
Method: (§1) FIG. 11A, FIG. 11B and FIG. 11C show data confirming the cell viability inhibitory effect of seven types of payloads except Compound 3 (DS-24) on the glioblastoma cell line U87MG, the multiple myeloma cell line KMS11, and the bladder cancer cell line RT112, respectively. Also, FIG. 12A, FIG. 12B, FIG. 12C, FIG. 12D, FIG. 12E and FIG. 12F show data confirming the cell viability inhibitory effect of seven types of payloads except Compound 3 (DS-24) on 6 types of cells derived from a patient with glioblastoma, respectively.
(§2) After treatment with the drug diluted to 14 different concentrations based on 20 μM as the highest concentration, it was verified whether the effect is proportional depending on the drug concentration through the concentration graph for two repeated tests. The cell viability was analyzed seven days after drug treatment to calculate IC50 that inhibits 50% of the cell viability.

[2] = system: bladder cancer cell line RT112; experiment: High-throughput screening, cell viability, RT112; format: cell-based; details: seven days after drug treatment
Method: as §1, §2

[3] = system: glioblastoma cell line U87MG; experiment: High-throughput screening, cell viability, U87MG; format: cell-based; details: seven days after drug treatment
Method: as §1, §2

[4] = system: GBM#1 (Glioblastoma, PDC); experiment: High-throughput screening, cell viability, GBM#1; format: cell-based; details: seven days after drug treatment
Method: as §1, §2

[5] = system: GBM#2 (Glioblastoma, PDC); experiment: High-throughput screening, cell viability, GBM#2; format: cell-based; details: seven days after drug treatment
Method: as §1, §2

[6] = system: GBM#3 (Glioblastoma, PDC); experiment: High-throughput screening, cell viability, GBM#3; format: cell-based; details: seven days after drug treatment
Method: as §1, §2

[7] = system: GBM#4 (Glioblastoma, PDC); experiment: High-throughput screening, cell viability, GBM#4; format: cell-based; details: seven days after drug treatment
Method: as §1, §2

[8] = system: cell lines and cells derived from a patient with glioblastoma; experiment: High-throughput screening, comparison of payloads across cell lines and brain tumor patient-derived cells; format: cell-based; details: for cell viability inhibitory effect on cells derived from a patient with glioblastoma compared to KMS11 and RT112: comparison between cells; for cell viability inhibitory effect compared with the other payloads: all cells
Method: as §1, §2

[9] = Hydrophobic interaction chromatography (HIC) analysis; format: physicochemical; details: inferred from HIC, DAR species appear as one
[10] = system: Her2-positive human gastric cancer cells NCI-N87; experiment: Cell growth inhibition assay (ATPlite), NCI-N87; format: cell-based; set-up: unit not given beside the values; details: 3 days of incubation
Method: (§3) Her2-positive human gastric cancer cells NCI-N87 and human ovarian cancer cells SK-OV3 purchased from the American Type Culture Collection (ATCC; Manassas, VA, USA) were seeded into a 384-well plate at 500 cells per well. After plating for 2 hours, the cells were treated in quadruplicate with toxins in 5-fold and 14-point serial dilution series. After 3 days of incubation at 37° C. in a 5% CO2 humidified incubator, cell viability was checked using an adenosine triphosphate monitoring system based on firefly luciferase (ATPlite™ 1step, PerkinElmer, MA, USA). IC50 values were calculated as an average of four quadruplicated tests (GraphPad Prism 5.0, CA, and USA). FIG. 13A and FIG. 13B are graphs showing the cell viability of NCI-N87 depending on the concentrations of DS-24 and DS-26, respectively, and FIG. 14A and FIG. 14B are graphs showing the cell viability of SK-OV3 depending on the concentrations of DS-24 and DS-26, respectively.

[11] = system: human ovarian cancer cells SK-OV3; experiment: Cell growth inhibition assay (ATPlite), SK-OV3; format: cell-based; set-up: unit not given beside the values; details: 3 days of incubation
Method: as §3

NCI cell lines = experiment: In vitro cell line activity, NCI NTP program; format: cell-based
Method: The activity of Compound 3 was checked by requesting a sample to the NCI NTP program.
Based on the results shown in FIG. 6, it was analyzed whether there was any statistical significance in the reactivity depending on cancer types in the cell lines for which the anticancer effect was confirmed by the NCI NTP program.

[12] = system: B16F10 (Murine melanoma Cell line); experiment: In vivo activity, B16F10 tumor volume; set-up: species or system mouse; details: 5 ug/kg, 50 ug/kg, 100 ug/kg, IV, twice a week

SMILES	IC50 [1]	IC50 [2]	IC50 [3]	IC50 [4]	IC50 [5]	IC50 [7]	cell viability inhibitory effect on cells derived from a patient with glioblastoma compared to KMS11 and RT112 [8]	other results
CC[C@H](C)[C@@H]([C@@H](CC(=O)N1CCC[C@H]1[C@H](OC)[C@@H](C)C(=O)N[C@@H](Cc1ccccc1)C(=O)O)OC)N(C)C(=O)[C@@H](NC(=O)[C@@H](NC)C(C)C)C(C)C [MMAF] (HELM PEPTIDE1{[meV].V.[CC[C@H](C)[C@@H]([C@@H](CC(=O)[*:2])OC)N(C)[*:1]].[CO[C@H]([C@@H](C)C(=O)[*:2])[C@@H]1CCCN1[*:1]].F}$$$$V2.0)	91.4 nM	112 nM	353 nM	16900 nM	1360 nM	8860 nM	remarkable decrease in the cell viability inhibitory effect	IC50 [6]: 31100 nM
COc1cc2cc(c1Cl)N(C)C(=O)C[C@H](OC(=O)[C@H](C)N(C)C(=O)CCS)[C@]1(C)O[C@H]1[C@H](C)[C@@H]1C[C@@](O)(NC(=O)O1)[C@H](OC)/C=C/C=C(\C)C2 [DM1]	0.0441 nM	0.0431 nM	13.3 nM	133 nM	95.9 nM	92.1 nM	remarkable decrease in the cell viability inhibitory effect	
COc1cc2cc(c1Cl)N(C)C(=O)C[C@H](OC(=O)[C@H](C)N(C)C(=O)CCC(C)(C)S)[C@]1(C)O[C@H]1[C@H](C)[C@@H]1C[C@@](O)(NC(=O)O1)[C@H](OC)/C=C/C=C(\C)C2 [DM4]	0.0229 nM	0.0202 nM	1.51 nM	29.8 nM	53.1 nM	8.15 nM	remarkable decrease in the cell viability inhibitory effect	
CC[C@H](C)[C@@H]([C@@H](CC(=O)N1CCC[C@H]1[C@H](OC)[C@@H](C)C(=O)N[C@H](C)[C@@H](O)c1ccccc1)OC)N(C)C(=O)[C@@H](NC(=O)[C@@H](NC)C(C)C)C(C)C [MMAE] (H-[NMeV]V[Dil][Dolaproine]-X1)	0.153 nM	0.259 nM	3.39 nM	51.6 nM	15 nM	53.3 nM	remarkable decrease in the cell viability inhibitory effect	
COc1ccc2c(OC(=O)N(CCN(C)C(=O)OCc3ccc(O[C@@H]4O[C@@H](C(=O)O)[C@H](OC(C)=O)[C@@H](OC(C)=O)[C@@H]4OC(C)=O)cc3)Cc3cn(CCOCCOCCOCCNC(=O)CCN4C(=O)C=CC4=O)nn3)cc3c(c2c1)[C@H](CCl)CN3C(=O)c1cc2cc(NC(=O)CCN3CCOCC3)ccc2[se]1 [Compound 3-3, (2R,3R,4R,5S,6S)-3,4,5-triacetoxy-6-(4-((((2-(((((S)-1-(chloromethyl)-8-methoxy-3-(5-(3-morpholinopropanamido)benzo[b]selenophene-2-carbonyl)-2,3-dihydro-1H-benzo[e]indol-5-yl)oxy)carbonyl)((1-(15-(2,5-dioxo-2,5-dihydro-1H-pyrrol-1-yl)-13-oxo-3,6,9-trioxa-12-azapentadecyl)-1H-1,2,3-triazol-4-yl)methyl)amino)ethyl)(methyl)carbamoyl)oxy)methyl)phenoxy)tetrahydro-2H-pyran-2-carboxylic Acid]								polarity and water solubility [9]: very high polarity and a good water solubility
CCc1c2c(nc3ccc(O)cc13)-c1cc3c(c(=O)n1C2)COC(=O)[C@]3(O)CC [SN-38]	169 nM	15.6 nM	67.8 nM	128 nM	97 nM	146 nM		IC50 [6]: 131 nM; cell viability inhibitory effect compared with the other payloads [8]: lower cell viability inhibitory effect than the other payloads
COc1ccc2c(O)cc3c(c2c1)[C@H](CCl)CN3C(=O)c1cc2cc(NC(=O)CCN3CCOCC3)ccc2[se]1 [Compound 3, (S)—N-(2-(1-(chloromethyl)-5-hydroxy-8-methoxy-2,3-dihydro-1H-benzo[e]indole-3-carbonyl)benzo[b]selenophen-5-yl)-3-morpholinopropanamide]								IC50 ([1]; Homo sapiens, KMS-11, 168 h): 0.0122 nM; IC50 ([2]; Homo sapiens, RT-112, 168 h): 0.00837 nM; IC50 ([3]; Homo sapiens, U-87 MG, 168 h): 0.0339 nM; IC50 ([4]; GBM1, 168 h): 0.98 nM; IC50 ([5]; GBM2, 168 h): 0.0264 nM; IC50 ([6]; GBM3, 168 h): 0.0313 nM; IC50 ([7]; 168 h): 0.215 nM; cell viability inhibitory effect compared with the other payloads [8]: highest cell viability inhibitory effect among the compared materials; AUC (area under the curve), NCI-N87 [10]: 277; AUC (area under the curve), SK-OV3 [11]: 160; TGI, sensitivity difference between cancer types (NCI cell lines; non-small cell lung cancer, CNS cancer and melanoma compared to leukemia): tumor growth inhibition effect; activity by cancer type (NCI cell lines; non-small lung cancer, CNS cancer, melanoma, renal cancer): remarkably strong activity; GI50 (Growth Inhibition 50%) (NCI cell lines; several cell lines): pM or less; in vivo activity (tumor volume) [12]: in vivo activity even at a very low concentration
